Source: US5523308A, “Peptidyl heterocycles useful in the treatment of thrombin related disorders” (priority 1995, dated 1996)
Like-named read-outs stand apart in the source and are kept apart here.

Key:
Bovine type 1 trypsin = target: T1, Bovine type 1 trypsin (Bos taurus, UniProt P00760); assay: Trypsin-catalyzed hydrolysis of chromogenic substrate Spectrozyme TRY (in vitro enzyme assay); type: biochemical; conditions: 3.2 U/ml trypsin, 0.1-0.3 mM Spectrozyme TRY; read-out: Trp IC50
T1 construct: purchased Sigma
T1 sequence (P00760 24-246): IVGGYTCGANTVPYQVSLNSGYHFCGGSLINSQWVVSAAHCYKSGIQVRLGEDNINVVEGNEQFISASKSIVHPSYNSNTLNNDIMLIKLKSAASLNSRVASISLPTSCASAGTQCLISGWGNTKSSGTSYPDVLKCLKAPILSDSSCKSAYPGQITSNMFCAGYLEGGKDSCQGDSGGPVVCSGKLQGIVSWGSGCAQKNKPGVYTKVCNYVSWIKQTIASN
Procedure: The compounds of the invention were tested for their ability to inhibit thrombin mediated hydrolysis. An in vitro enzyme assay was performed as well as an ex vivo assay. In addition, the compounds were tested in vitro for their ability to inhibit trypsin, as an indication of their selectivity.
Trypsin-catalyzed hydrolysis rates were measured using the same method as the thrombin procedure.
The compound numbers in the table correspond to the examples described hereinafter.

[1] = Ex vivo i.v. assay for duration of action: time to half plasma elimination from thrombin inhibition in rat plasma; conditions: male Long Evans rats, i.v. via femoral vein, from slope of Vo vs. time
Procedure: (§1) An ex vivo assay was conducted to determine the duration of action of the compounds of Formula I. For this i.v. assay male rats (Long Evans, 350-500 g) were implanted with a teflon cannulae via the femoral artery while under anesthesia (pentobarbital i.p., 35 mg/kg). […] The animals were allowed to recover for at least 24 h after the surgical procedure.
(§2) The test compound was dispersed in water and delivered to the animal (0.25 mL) via the femoral vein. […] A plasma sample was obtained by centrifuging the blood at 10,000 rpm for 5 min. This sample is analyzed for thrombin inhibition using the chromogenic assay, described below.
(§3) Datum was collected over a 30 min period and the initial rate of substrate hydrolysis (V0 (mOD/min)) was calculated with an analysis program (Softmax, Molecular Devices).
(§4) The time to half plasma elimination (t 1/2) was calculated from the slope of Vo vs. time, using the following equation: t 1/2=-1.6 slope.

human alpha-thrombin = target: T2, human alpha-thrombin (Homo sapiens, UniProt P00734); assay: Thrombin-catalyzed hydrolysis of chromogenic substrate Spectozyme TH (in vitro enzyme assay); type: biochemical; conditions: 1 nM thrombin, 37° C., pH 7.4; for IC50: 50 μM Spectozyme TH, read-out: Thr IC50
T2 construct: commercial human alpha-thrombin (American Diagnostica); purchased American Diagnostica
Procedure: Thrombin-catalyzed hydrolysis rates were measured spectrophotometrically using commercial human alpha-thrombin (American Diagnostica), a chromogenic substrate (Spectozyme® TH (H-D-HHT-Ala-Arg-pNA.2AcOH), American Diagnostica) in aqueous buffer (10 mM Tris, 10 mM Hepes, 150 mM NaCl, 0.1% PEG; pH 7.4), and a microplate reader (Molecular Devices). Changes in absorbance at 405 nm were monitored (Softmax, Molecular Devices), upon addition of enzyme, both with and without inhibitor present at 37° C. over 30 minutes. […] Michaelis-Menton kinetics were applied to the initial reaction slopes. […] Michaelis-Menton kinetics were applied to the initial reaction slopes using the program K.Cat (Bio Metallics Inc.).

[2] = Ex vivo bioavailability assay, i.v. and p.o. dosing, thrombin inhibition in rat plasma; conditions: male rats, p.o. vs i.v., extrapolated drug in plasma vs. time
Procedure: Bioavailability was determined by an ex vivo assay which incorporated hydrolysis rates from drug administered both i.v. and p.o. In this assay male rats were prepared as described above with a teflon tube implanted in their femoral artery. […] The test compound was dispersed in water (0.3-3.0 mg/mL final conc.) and delivered to the animals (0.25 mL) either i.v. or p.o..
A standard curve was generated by adding of drug or vehicle (100 μL) to whole blood (900 μL) followed by incubating (5 min) and centrifuging to obtain plasma. The percentage of thrombin inhibition was calculated by comparing the V0 of the vehicle to that of the drug treated samples. Datum from several runs were normalized with a statistical package (SAS) to generate a standard curve.
The percentage of thrombin inhibition in the treated animals was calculated by comparing the V0 prior to treatment with the V0 obtained from samples collected after treatment. The percent inhibition was applied to the standard curve (generated above) using the statistical package (SAS) and the quantity of drug in the sample was extrapolated.
Bioavailability (Bioavail.) was calculated from the plots of the extrapolated drug in sample vs. time for both i.v. and p.o. administration using the following equation:
%Bioavail. =(i.v. dose administered/p.o. dose administered)×(area under p.o. curve/area under curve i.v.)

[3] = rat, in vivo, iv
Procedure: as §1, §2, §3, §4

trypsin = conditions: pancreatic agents quoted for comparison; read-out: IC50 (trypsin inhibitors used clinically); cited from earlier work

Compound	IC50 (Bovine type 1 trypsin) [nM]	t1/2 (time to half plasma elimination) [3] [min]	IC50 (human alpha-thrombin) [nM]	also measured
CNC(C(=O)N1CCC[C@H]1C(=O)N[C@@H](CCCNC(=N)N)C(=O)c1nc2ccccc2s1)c1ccccc1 (single isomer, unassigned) [Compound 34]	3	–	–	t1/2 (time to half plasma elimination) [1]: 26 min
CN[C@H](Cc1ccccc1)C(=O)N1CCC[C@H]1C(=O)N[C@@H](CCCNC(=N)N)C(=O)c1nc2ccccc2s1 [Compound 1, N-METHYL-D-PHENYLALANYL-N-[4-[(AMINOIMINOMETHYL)AMINO]-1S-[(BENXOTHIAZOL-2- YL)CARBONYL]BUTYL]-L-PROLINAMIDE]	–	19	–	Ki (human alpha-thrombin; 5-100 μM Spectozyme TH, read-out: Thr Ki (listed in place of the IC50)): 0.23 nM; Bioavail, [2]: 1.2%
CNC(Cc1ccccc1)C(=O)N1CCCC1C(=O)NC(CCCNC(=N)N)C(=O)c1nccs1 (stereo not drawn) [Compound 4]	6	16	19	–
CCOC(=O)c1csc(C(=O)[C@H](CCCNC(=N)N)NC(=O)[C@@H]2CCCN2C(=O)[C@@H](Cc2ccccc2)NC)n1 [Compound 19, N-METHYL-D-PHENYLALANYL-N-[4-[(AMINOIMINOMETHYL)AMINO]-1S-[(4-ETHOXYCARBONY LTHIAZOL-2-YL)CARBONYL]BUTYL]-L-PROLINAMIDE]	5	14	26	–
CNC(Cc1ccccc1)C(=O)N1CCCC1C(=O)NC(CCCNC(=N)N)C(=O)c1nc2ccccc2[nH]1 (stereo not drawn) [Compound 21]	51	5	24	–
CN[C@H](Cc1ccccc1)C(=O)N1CCC[C@H]1C(=O)N[C@@H](CCCNC(=N)N)C(=O)c1nc2ccc(O)cc2s1 [Compound 25, N-METHYL-D-PHENYLALANYL-N-[4-[(AMINOIMINOMETHYL)AMINO]-1S-[(6-HYDROXYBENXOT HIAZOL-2-YL)CARBONYL]BUTYL]-L-PROLINAMIDE]	–	–	–	t1/2 (time to half plasma elimination) [1]: 14 min
CN[C@H](Cc1c(F)c(F)c(F)c(F)c1F)C(=O)N1CCC[C@H]1C(=O)N[C@@H](CCCNC(=N)N)C(=O)c1nc2ccccc2s1 [Compound 30]	2	6	29	–
CC(=O)N[C@H](Cc1ccccc1)C(=O)N1CCC[C@H]1C(=O)N[C@@H](CCCNC(=N)N)C(=O)c1nc2ccccc2s1.O=C(O)C(F)(F)F [Compound 35]	2	11	201	–
CN[C@@H](C(=O)N1CCC[C@H]1C(=O)N[C@@H](CCCNC(=N)N)C(=O)c1nc2ccccc2s1)C1CCCCC1 [Compound 37, N-METHYL-D-CYCLOHEXYLGLYCYL-N-[4-[(AMINOIMINOMETHYL)AMINO]-1S-[(BENXOTHIAZO L-2-YL)CARBONYL]BUTYL]-L-PROLINAMIDE]	1	42	–	–
CN[C@H](Cc1ccccc1)C(=O)N1CCC[C@H]1C(=O)N[C@@H](CCCNC(=N)N)C(=O)c1nc2c(s1)CCCC2 [Compound 51, N-METHYL-D-PHENYLALANYL-N-[4-[(AMINOIMINOMETHYL)AMINO]-1S-[(4,5,6,7-TETRAHY DROBENZOTHIAZOL-2-YL)CARBONYL]BUTYL]-L-PROLINAMIDE]	7	17	17	–
CN[C@H](Cc1ccccc1)C(=O)N1CCC[C@H]1C(=O)N[C@@H](CCCNC(=N)N)C(=O)c1nc2ccc3ccccc3c2s1 [Compound 52, N-METHYL-D-PHENYLALANYL-N-[4-[(AMINOIMINOMETHYL)AMINO]-1S-[(NAPTHO[2,1-D]TH IAZOL-2-YL)CARBONYL]BUTYL]-L-PROLINAMIDE]	5	8	–	–
CN[C@H](Cc1ccccc1)C(=O)N1CCC[C@H]1C(=O)N[C@@H](CCCNC(=N)N)C(=O)c1nc(C(=O)O)cs1 [Compound 54, N-METHYL-D-PHENYLALANYL-N-[4-[(AMINOIMINOMETHYL)AMINO]-1S-[(4-CARBOXYTHIAZO L-2-YL)CARBONYL]BUTYL]-L-PROLINAMIDE]	13	15	110	–
CN(C)C(=O)COC(=O)Cc1ccc(OC(=O)c2ccc(NC(=N)N)cc2)cc1 [camostat mesilate]	–	–	–	IC50 (trypsin): 10 nM
N=C(N)c1ccc2cc(OC(=O)c3ccc(N=C(N)N)cc3)ccc2c1 [nafamostat]	–	–	–	IC50 (trypsin): 13 nM
